Source: patent US6562806B1, “Pyrrolobenzodiazepines” (Spirogen Limited, priority 1998, dated 2003)
Like-named read-outs stand apart in the source and are kept apart here.

What was measured:
[1] = test system: SW1116 and LS174T cell lines; assay: Nitroreductase-activation cytotoxicity, SRB assay, 'same cell lines' (value not assigned to one line); type: cell-based, human
Protocol: (§1) Compound 7, synthesized according to example 1, was evaluated in two different cell lines, namely SW1116 and LS174T. Both SW1116 and LS174T are human adenocarcinoma colonic cell lines, which were grown at Charing Cross hospital. The cells, at a concentration of 2500 cells/ml, were plated in 96-well microtitre plates, and were incubated at 37° C. for 1 hour with different concentrations of the prodrug, in the presence or absence of E. coli nitroreductase-monoclonal antibody conjugate in phosphate buffer saline (available from Sigma), and NADH (the co-factor necessary for enzyme function) in DMSO. The cells were then washed and incubated for a further 3 days at 37° C. At the end of this period, the cells were fixed (TCA) and stained. The concentration of the remaining viable cells adhering to the plates was quantified by a sulforhodamine B (SRB) dye. The control sets of cells treated with the prodrug alone were used in order to evaluate the cytotoxicity of the compound prior to enzymatic activation.

[2] = test system: K562 cells; assay: MTT growth inhibition of K562 cells by irradiated aliquots; type: cell-based, human
Protocol: An MTT assay was used to evaluate the ability of aliquots of the activated analogues, which were removed at time intervals, to inhibit the growth of chronic human histiocytic leukaemia K562 cells in culture. Following treatment of cells with a range of drug doses, cells were transferred to 96-well microtitre plates, 10^4 cells per well, 8 wells per sample. Plates were incubated at 37° C. in a humidified atmosphere containing 5% CO2. The assay is based on the ability of viable cells to reduce a yellow soluble tetrazolium salt 3-(4,5-dimethylthiazolyl)-2,5-diphenyltetrazolium bromide (MTT), to an insoluble purple formazan precipitate. Following incubation of the plates for 4 days (to allow control cells to increase 10-fold in number), 20 μL of a 5 mg/mL solution of MTT in phosphate-buffered saline was added to each well and the plates were incubated for a further 5 hours. The plates were then centrifuged for 5 minutes at 300 g and the bulk of the medium was removed from the cell pellet. DMSO (200 μL) was added to each well, and the samples agitated to ensure complete mixing. The optical density was then measured at a wavelength of 550 nm on a Titertek Multiscan ELISA plate reader and expressed as a percentage of the control optical density. For each curve, an IC50 value was read as the dose required to reduce the final optical density to 50% of the control value.

[3] = test system: LS174T cells; assay: Nitroreductase-activation cytotoxicity, SRB assay, LS174T cells; type: cell-based, human
Protocol: as §1

[4] = test system: SW1116 cells; assay: Nitroreductase-activation cytotoxicity, SRB assay, SW1116 cells; type: cell-based, human
Protocol: as §1

[5] = UVA (365 nm) cleavage of photolabile NVOC group monitored by HPLC; type: physicochemical
Protocol: This experiment involved the irradiation of compound 11, see example 3, in DMF at a concentration of 1 mM using a Stratagene UVA Crosslinker(365 nm). Small aliquots (100 μL) were removed at 30 minutes, 1 hour, 2 hours and 3 hours and the cleavageof the photolabile NVOC group was monitored by HPLC, using a Waters C4, 300 angstrom reversed phase column and a mobile phase of 50% methanol/50% water. Compound 11 has a retention time of 11.25 minutes and upon radiation produced a new peak with a retention time of 8.58 minutes. Authentic benzyl DC-81 has an identical retention time of 8.58 minutes. Complete conversion is achieved by 2 hours of irradiation at 365 nm under the conditions employed.

[6] = test system: CH1cisR; assay: Ovarian cell line cytotoxicity, SRB, 96 hours; type: cell-based
Protocol: (§2) Compounds 52 (UP 2073) and the comparative compound 55b (UP2090) were evaluated for their cytotoxic activity in ovarian cell lines by Dr Lloyd R. Kelland's group at The Institute of Cancer Research, Sutton, UK. The five cell lines investigated were SKOV-3, A2780/A2780cisR and CH1/CH1cisR (cisR denotes that the cell line is resistant to cisplatin).
(§3) Single viable cells were seeded in growth medium (160 μL) in 96-well microtitre plates and allowed to attach overnight. The test compounds were then dissolved in DMSO (to give 20 mM drug concentrations) immediately prior to adding the cells in quadruplicate wells. The final drug concentrations in the wells ranged from 100 μM to 2.5 nM as follows:100, 25, 10, 2.5, 1 μM, 250, 100, 25, 10, 2.5 nM (drugs were diluted in growth medium and then 40 μL added to the existing well volume of 160 μL to give final concentrations as above). After 96 hours, the medium was removed and the remaining cells fixed by exposure to 10% trichloroacetic acid on ice for 30 minutes. The wells were then washed 3-4 times with tap water, air dried overnight and treated with 100 μL of sulphorhodamine B (0.4%) dissolved in 1% acetic acid. Staining was allowed to continue for 10-15 minutes, then the wells were washed 3-4 times with 1% acetic acid, air dried and then added to Tris base (100 μL of 10 mM). Plates were then shaken and absorbance readings at […] were determined using a plate reader. The IC50 values were calculated from plots of concentration versus percentage absorbance (compared with 8 untreated wells).

[7] = test system: SKOV3; assay: Ovarian cell line cytotoxicity, SRB, 96 hours; type: cell-based; conditions: Homo sapiens, SK-OV-3; SKOV3, 96 hours
Protocol: as §2, §3

[8] = test system: A2780; assay: Ovarian cell line cytotoxicity, SRB, 96 hours; type: cell-based; conditions: Homo sapiens; A2780, 96 hours
Protocol: as §2, §3

[9] = test system: A2780cisR; assay: Ovarian cell line cytotoxicity, SRB, 96 hours; type: cell-based
Protocol: as §2, §3

[10] = test system: CH1; assay: Ovarian cell line cytotoxicity, SRB, 96 hours; type: cell-based; conditions: Homo sapiens; CH1, 96 hours
Protocol: as §2, §3

[11] = irradiation time 0 hours, DMF at 1 mM initial drug concentration
[12] = irradiation time 0 hours, DMF at 10 mM initial drug concentration
[13] = LS174T, E. coli nitroreductase-antibody conjugate + NADH, read-out: IC50 in the presence of the enzyme and co-factor

## COc1cc2c(cc1OCc1ccccc1)N=C[C@@H]1CCCN1C2=O [benzyl DC-81, reference compound]
[1]; same cell lines, same conditions, read-out: IC50 of the parent drug
  IC50: 0.008 µM
[2]; [11]
  IC50: 0.5 µM
[2]; [12]
  IC50: 0.5 µM
[2]; irradiation time 0 hours, FIG. 8: DMF at 1 mM, text says methanol
  IC50: 0.5 µM

## COc1cc2c(cc1OCCCOc1cc3c(cc1OC)C(=O)N1CCC[C@H]1C(O)N3C(=O)OCc1ccc([N+](=O)[O-])cc1)N(C(=O)OCc1ccc([N+](=O)[O-])cc1)C(O)[C@@H]1CCCN1C2=O (some centres unmarked) [Compound 30]
[3]; LS174T, no enzyme, average of two measurements, read-out: IC50 of prodrug alone
  IC50: 215 µM
[3]; [13]
  IC50: 13.7 µM
[3]; LS174T, IC50 without / with enzyme and co-factor
  activation factor: 15-16 fold

## COc1cc2c(cc1OCc1ccccc1)N(C(=O)OCc1ccc([N+](=O)[O-])cc1)C(O)[C@@H]1CCCN1C2=O (stereo partly drawn) [Compound 7, (11aS)-8-benzyloxy-7-methoxy-1,2,3,10,11,11a-hexahydro-11-hydroxy-10-(p-nitrobenzyloxy)carboxy-5H-pyrrolo[2,1-c][1,4]-benzodiazepine-5-one]
[3]; LS174T cells, no enzyme, concentrations higher than 100 μM
  toxicity of the prodrug alone: slight toxicity
[3]; [13]
  IC50: 1 to 5 µM
[1]; after addition of enzyme conjugate and NADH, cell line not specified, read-out: IC50 of the nitroreductase-activated prodrug
  IC50: 1 to 5 µM
[1]; parent benzyl DC-81 vs activated prodrug
  difference between IC50 of parent drug and nitroreductase-activated prodrug: 20-100 fold
[4]; SW1116, E. coli nitroreductase-antibody conjugate + NADH, read-out: IC50 in the presence of the enzyme and co-factor
  IC50: 1 to 5 µM
[4]; SW1116 cells, no enzyme, concentrations of up to 500 μM
  toxicity of the prodrug alone: essentially non-toxic

## 1,1′-[[(Propane-1,3-diyl)dioxy]bis[[2-(2,3-dimethoxy-5-nitrobenzyloxycarboxamido)]bis[(11aS)-7-methoxy-1,2,3,11a-tetrahydro-11-hydroxy-5H-pyrrolo[1,2-c][1,4]benzodiazepine-5-one [Compound 32]
[2]; dimer series (FIG. 9), irradiation time 0 hours, footnote DMF at 1 mM, FIG. 9 legend methanol
  IC50: 4.5 µM
[2]; dimer series (FIG. 9), irradiation time 0.5 hours, footnote DMF at 1 mM, FIG. 9 legend methanol
  IC50: 1.9 µM
[2]; dimer series (FIG. 9), irradiation time 1.0 hours, footnote DMF at 1 mM, FIG. 9 legend methanol
  IC50: 1.75 µM
[2]; dimer series (FIG. 9), irradiation time 2.0 hours, footnote DMF at 1 mM, FIG. 9 legend methanol
  IC50: 1.25 µM
[2]; dimer series (FIG. 9), irradiation time 5.0 hours, footnote DMF at 1 mM, FIG. 9 legend methanol
  IC50: 0.85 µM
[5]; HPLC data (not shown)
  irradiation time to almost complete conversion: ≤ 2 h
[5]; HPLC data (not shown), dimer prodrug experiments
  irradiation time to complete conversion: ≤ 5 h

## COc1cc2c(cc1OC)C(=O)N1CCC[C@H]1C=N2 [UP2025]
[6]; CH1cisR divided by CH1
  RF (resistance factor): 1.3
[6]; Homo sapiens, CH1cisR (cisplatin resistant), 96 hours
  IC50: 0.11 µM
[7]
  IC50: 1.7 µM
[8]
  IC50: 0.064 µM
[9]; A2780cisR divided by A2780
  RF (resistance factor): 2.4
[9]; Homo sapiens, A2780cisR (cisplatin resistant), 96 hours
  IC50: 0.155 µM
[10]
  IC50: 0.082 µM

## CC=C1C[C@H]2C(O)N(C(=O)OCc3ccc([N+](=O)[O-])cc3)c3cc(OCc4ccccc4)c(OC)cc3C(=O)N2C1 (stereo partly drawn) [Compound 24, (11aS)-8-benzyloxy-7-methoxy-1,3,10,11,11a-tetrahydro-2-ethylidene-11-hydroxy-10-(p-nitrobenzyloxy)carboxy-5H-pyrrolo[2,1-c][1,4]-benzodiazepine-5-one]
[1]; Homo sapiens, after addition of enzyme conjugate and NADH, cell line not specified, read-out: IC50 of the nitroreductase-activated prodrug
  IC50: 6.4 µM
[1]; Homo sapiens, no enzyme, average of two experiments, cell line not specified, read-out: IC50 of prodrug alone
  IC50: 86.2 µM
[1]; IC50 without / with enzyme conjugate and NADH
  activation factor: approximately 13.5

## COc1cc(COC(=O)N2c3cc(OCc4ccccc4)c(OC)cc3C(=O)N3CCC[C@H]3C2O)c([N+](=O)[O-])cc1OC (stereo partly drawn) [Compound 11, (11aS)-8-benzyloxy-7-methoxy-1,2,3,10,11,11a-hexahydro-11-hydroxy-10-(21-nitro-4′,5′-dimethoxybenzyloxy)carboxy-5H-pyrrolo[2,1-c][1,4]-benzodiazepine-5-one]
[2]; [11]
  IC50: 47.5 µM
[2]; [12]
  IC50: 48.5 µM
[2]; irradiation time 0.5 hours, DMF at 1 mM initial drug concentration
  IC50: 0.98 µM
[2]; irradiation time 0.5 hours, DMF at 10 mM initial drug concentration
  IC50: 4.33 µM
[2]; irradiation time 0.5 hours, FIG. 8: DMF at 1 mM, text says methanol
  IC50: 4.5 µM
[2]; irradiation time 1.0 hours, DMF at 1 mM initial drug concentration
  IC50: 0.6 µM
[2]; irradiation time 1.0 hours, DMF at 10 mM initial drug concentration
  IC50: 2.17 µM
[2]; irradiation time 1.0 hours, FIG. 8: DMF at 1 mM, text says methanol
  IC50: 4 µM
[2]; irradiation time 2.0 hours, DMF at 1 mM initial drug concentration
  IC50: 0.6 µM
[2]; irradiation time 2.0 hours, DMF at 10 mM initial drug concentration
  IC50: 1.75 µM
[2]; irradiation time 2.0 hours, FIG. 8: DMF at 1 mM, text says methanol
  IC50: 3.2 µM
[5]; DMF, 1 mM, 365 nm, HPLC
  irradiation time to complete conversion: ≤ 2 h

## COc1cc2c(cc1OCCCOc1cc3c(cc1OC)C(=O)N1CCC[C@H]1C=N3)N=C[C@@H]1CCCN1C2=O [DSB-120, reference compound]
[3]; Homo sapiens, LS174T, read-out: cytotoxicity (IC50) of the parent agent
  IC50: 0.0005 µM
[2]; Homo sapiens, K562, light or radiation study, dimer series (FIG. 9), irradiation time 0 hours, footnote DMF at 1 mM, FIG. 9 legend methanol
  IC50: 0.55 µM
